Data on 4 molecules can be found in US20180220653A1, “Methods for Identifying Compounds that Directly Bind to Insect Transient Receptor Potential Channels” (priority 2015, published 2018).

The target of data set [1] is mouse TRPV channel, mTRPV4 (Mus musculus, UniProt Q9EPK8). Nature of the data set: Calcium response in CHO cells expressing mTRPV4. Format: cell-based. Conditions: CHO cells transduced with mTRPV4 adenovirus; FIG. 6.
For data set [2], the system named is Nan and Iav from pea aphid. Nature of the data set: Two-electrode voltage clamp in Xenopus laevis oocytes injected with Nan and Iav mRNA. Type of data set: cell-based, Acyrthosiphon pisum. Conditions: 10 uM dPFQ; oocytes with Nan+Iav vs Nan or Iav alone; FIG. 4a.
The test system of data set [3] is Nan. Type of data set: binding, Drosophila. Conditions: for displacement of [3H]-afidopyropen from Nan-only sites: Ki not accurately determined, curves did not reach bottom plateaus. On the technique in general: Displacement assays read how much labelled ligand stays bound in the presence of the test substance.
In data set [4] the target is T1, insect TRPV channels, Nan and Iav (Drosophila melanogaster, UniProt M9PI57+Q9W3W0).
T1 sequence (M9PI57 1-834): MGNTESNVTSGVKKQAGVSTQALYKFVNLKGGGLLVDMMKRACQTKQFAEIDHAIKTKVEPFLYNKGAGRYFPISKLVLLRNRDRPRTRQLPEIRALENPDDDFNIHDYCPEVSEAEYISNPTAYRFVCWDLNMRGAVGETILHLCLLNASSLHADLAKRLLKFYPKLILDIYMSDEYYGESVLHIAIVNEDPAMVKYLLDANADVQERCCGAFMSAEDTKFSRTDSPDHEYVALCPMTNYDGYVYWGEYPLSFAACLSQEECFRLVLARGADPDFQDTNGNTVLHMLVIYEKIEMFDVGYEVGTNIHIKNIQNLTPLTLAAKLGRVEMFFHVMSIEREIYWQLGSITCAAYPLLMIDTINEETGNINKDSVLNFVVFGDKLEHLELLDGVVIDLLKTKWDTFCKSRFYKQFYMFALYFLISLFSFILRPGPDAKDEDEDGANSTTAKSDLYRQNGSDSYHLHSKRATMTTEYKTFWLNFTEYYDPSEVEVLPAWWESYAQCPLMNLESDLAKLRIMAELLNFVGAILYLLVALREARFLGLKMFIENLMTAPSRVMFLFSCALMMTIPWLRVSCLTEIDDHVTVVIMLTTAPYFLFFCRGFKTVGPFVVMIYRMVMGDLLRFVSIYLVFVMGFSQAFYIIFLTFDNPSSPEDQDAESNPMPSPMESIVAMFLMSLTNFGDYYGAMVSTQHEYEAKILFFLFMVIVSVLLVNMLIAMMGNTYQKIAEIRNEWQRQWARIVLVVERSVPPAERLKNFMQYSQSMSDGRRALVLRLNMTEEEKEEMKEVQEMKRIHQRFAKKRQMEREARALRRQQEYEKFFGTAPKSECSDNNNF
T1 sequence (Q9W3W0 1-1123): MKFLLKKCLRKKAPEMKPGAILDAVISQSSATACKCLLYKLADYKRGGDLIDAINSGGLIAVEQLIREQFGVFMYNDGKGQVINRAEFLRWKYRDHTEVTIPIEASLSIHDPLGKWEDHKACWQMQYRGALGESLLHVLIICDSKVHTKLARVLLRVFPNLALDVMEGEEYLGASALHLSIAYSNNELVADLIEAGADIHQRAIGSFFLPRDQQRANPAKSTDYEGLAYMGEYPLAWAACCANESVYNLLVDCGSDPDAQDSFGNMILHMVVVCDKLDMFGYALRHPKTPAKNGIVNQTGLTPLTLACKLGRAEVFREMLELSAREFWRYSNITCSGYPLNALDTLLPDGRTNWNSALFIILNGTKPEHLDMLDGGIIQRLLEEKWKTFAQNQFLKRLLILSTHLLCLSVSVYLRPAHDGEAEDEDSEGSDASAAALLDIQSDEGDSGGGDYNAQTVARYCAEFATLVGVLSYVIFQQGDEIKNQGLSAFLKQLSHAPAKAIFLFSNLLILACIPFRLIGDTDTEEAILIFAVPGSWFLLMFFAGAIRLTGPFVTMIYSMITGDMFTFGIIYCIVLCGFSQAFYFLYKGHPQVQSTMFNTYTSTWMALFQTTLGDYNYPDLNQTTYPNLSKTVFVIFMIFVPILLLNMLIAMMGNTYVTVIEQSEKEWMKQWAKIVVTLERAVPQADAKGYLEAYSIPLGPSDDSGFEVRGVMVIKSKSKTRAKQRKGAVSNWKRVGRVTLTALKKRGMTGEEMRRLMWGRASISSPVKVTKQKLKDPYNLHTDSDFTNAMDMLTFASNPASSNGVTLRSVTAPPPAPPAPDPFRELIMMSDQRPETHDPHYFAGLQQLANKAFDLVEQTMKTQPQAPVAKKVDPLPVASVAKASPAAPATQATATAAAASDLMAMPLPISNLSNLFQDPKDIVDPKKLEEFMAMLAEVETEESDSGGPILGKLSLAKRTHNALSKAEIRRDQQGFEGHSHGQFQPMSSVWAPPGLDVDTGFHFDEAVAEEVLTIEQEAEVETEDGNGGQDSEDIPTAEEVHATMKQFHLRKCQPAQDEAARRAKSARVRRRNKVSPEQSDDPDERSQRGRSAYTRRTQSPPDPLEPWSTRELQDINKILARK
To be noted: for EC50: read-out: half-maximal effective concentrations (EC50), calcium mobilization, CHO cells co-expressing Nan and Iav, FIG. 5.

For data set [5], the target named is T1, insect TRPV channels, Nan and Iav.
The nature of data set [6]: Solubility observed in competition binding assay. Conditions: at high concentrations, binding buffer.
Data set [7] deals with American grasshoppers (Schistocerca americana). Nature of the data set: Leg extension assay in American grasshoppers. Conditions: injection, 10 mM in 100% DMSO, 3 μl per animal; assessed 40-60 minutes post-injection. Type of data set: in vivo. Here is the method: American grasshoppers (Schistocerca americana) were obtained from Dr. Hojun Song (University of Central Florida). Test compounds (10 mM in 100% DMSO), or vehicle (100% DMSO) were applied by injection through the abdominal intersegmental cuticle (3 μl per animal), using Hamilton syringe. The effects of compounds were assessed 40-60 minutes post-injection.

Data set [8] concerns locusts (Locusta migratoria). Conditions: injection, Ausborn et al., 2005; cited from earlier work.
In data set [9] the target is T1, insect TRPV channels, Nan and Iav. Nature of the data set: cell-based.
The mark [10] stands for this setting: Nan+Iav cells vs parental cells and cells expressing Nan or Iav alone, FIG. 3.
The mark [11] stands for this setting: Nan+Iav cells vs parental cells and cells expressing Nan or Iav alone, FIG. 4.

A word on the Ki: it is the equilibrium dissociation constant of an inhibitor or competing ligand from its target.

Like-named read-outs stand apart in the source and are kept apart here.

Chain of mouse TRPV channel, mTRPV4 (Q9EPK8 whole entry): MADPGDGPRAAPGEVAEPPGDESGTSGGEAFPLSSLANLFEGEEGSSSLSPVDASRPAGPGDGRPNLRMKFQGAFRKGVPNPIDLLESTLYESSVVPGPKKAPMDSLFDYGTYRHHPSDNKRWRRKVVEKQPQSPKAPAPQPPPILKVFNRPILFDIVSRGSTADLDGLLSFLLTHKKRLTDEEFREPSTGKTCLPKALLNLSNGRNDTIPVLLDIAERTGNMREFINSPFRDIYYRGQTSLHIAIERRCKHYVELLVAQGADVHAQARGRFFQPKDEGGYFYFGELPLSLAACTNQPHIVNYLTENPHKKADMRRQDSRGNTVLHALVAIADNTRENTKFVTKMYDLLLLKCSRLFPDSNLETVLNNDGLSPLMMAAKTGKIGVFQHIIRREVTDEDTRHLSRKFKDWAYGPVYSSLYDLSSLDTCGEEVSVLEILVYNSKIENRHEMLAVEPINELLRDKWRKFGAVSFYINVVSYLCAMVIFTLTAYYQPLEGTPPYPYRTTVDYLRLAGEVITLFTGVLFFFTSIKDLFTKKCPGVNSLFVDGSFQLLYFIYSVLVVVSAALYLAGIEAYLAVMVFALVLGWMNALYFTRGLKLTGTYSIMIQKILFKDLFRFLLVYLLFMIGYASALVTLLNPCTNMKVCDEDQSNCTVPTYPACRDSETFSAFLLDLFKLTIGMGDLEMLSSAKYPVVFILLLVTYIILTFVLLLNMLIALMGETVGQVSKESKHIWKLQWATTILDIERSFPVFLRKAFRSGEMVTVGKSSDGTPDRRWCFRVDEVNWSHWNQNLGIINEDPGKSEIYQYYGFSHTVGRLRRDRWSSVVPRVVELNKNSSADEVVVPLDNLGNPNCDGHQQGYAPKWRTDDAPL

In the case of `CC(C)C[C@H](NC(=O)c1cc2ccccc2s1)C(=O)N1CCN(C(=O)[C@H](CO)NS(=O)(=O)c2ccc(Cl)cc2Cl)CC1` [GSK1016790A, N-((1S)-1-{[4-((2S)-2-{[(2,4-dichlorophenyl)sulfonyl]amino}-3-hydroxypropanoyl)-1-piperazinyl]carbonyl}-3-methylbutyl)-1-benzothiophene-2-carboxamide], in data set [1], the “calcium response / activation of mTRPV4” value is “evoked strong calcium response”.
As to `O=C1Nc2ccc(C(F)(C(F)(F)F)C(F)(F)F)cc2CN1NCc1cccnc1` [N-deacetylated pyrifluquinazon], in data set [2], the “inward and outward current responses” value is “evoked both inward and outward current responses only in oocytes expressing both Nan and Iav”. Moreover, the “displacement of [3H]-afidopyropen from Nan-only sites” value in [3] is “clearly displaced”. For the same molecule, in data set [4] (setting [10]), the calcium mobilization response entry is “only in cells co-infected with Nan and Iav viruses”. Further, the EC50 in [4] was found to be 64 nM. Besides, the membrane depolarization response result in data set [5] (setting [11]) was “only in cells co-infected with Nan and Iav viruses”. In data set [6], the solubility entry is “poor solubility”.
Turning to `C[C@]1(COC(=O)C2CC2)[C@@H]2C[C@H](O)[C@@]3(C)Oc4cc(-c5cccnc5)oc(=O)c4[C@H](O)[C@@H]3[C@@]2(C)CC[C@@H]1OC(=O)C1CC1` [afidopyropen], the hind leg extension entry in data set [7] is “elicited hind leg extension”. Also, the “calcium response / activation of mTRPV4” value in [1] is “failed to activate”. In addition, the inhibitory constant (Ki) in data set [3] (Nan-only expressing membranes, FIG. 9B, read-out: Ki, displacement assay) was determined as 3.1 nM. The calcium mobilization response entry in [4] (setting [10]) was “only in cells co-infected with Nan and Iav viruses”. Besides, in data set [4], the EC50 turned out to be 1 nM. Also, the membrane depolarization response entry in data set [5] (setting [11]) was “only in cells co-infected with Nan and Iav viruses”.
For the molecule `CC1=NNC(=O)N(/N=C/c2cccnc2)C1` [pymetrozine], the hind leg extension entry in [7] is “Elicit Characteristic Hind Leg Extension”; in data set [8], “produce characteristic hind leg extension”. For the same molecule, in data set [3], the “displacement of [3H]-afidopyropen from Nan-only sites” value was “clearly displaced”. The calcium mobilization response entry in data set [4] is “only in cells co-infected with Nan and Iav viruses”. Also, the membrane depolarization response result in data set [5] was “only in cells co-infected with Nan and Iav viruses”. The molecule further showed an EC50 in data set [9] of 51 nM. The solubility entry in [6] is listed as “poor solubility”.
